Laboratory results taken from US20250134917A1, “COMPOSITIONS AND METHODS OF REGENERATING HEART TISSUES WITH AMINOGLYCOSIDES” (The Board of Regents of The University of Texas System, priority 2022, published 2025).

Assays:
[1] = test system: HOXB13 transcriptional activity; test: HOXB13 luciferase transcriptional activity assay in NRVMs; assay type: cell-based, rat; details: 10-500 nM, compared to control (PBS for neomycin, paromomycin; DMSO for rutin, hesperidin)
Excerpt: (§1) S1: HOXB13 DNA binding domain, S2: Meis1 DNA binding domain, and S3: Interacting interface between Meis1 and HOXB13 (PDB ID: 5EGO). […] Data are mean±s.e.m.; unpaired two-sided t-test. * P<0.05, ** P<0.01, *** P<0.001.

[2] = test system: Meis1 transcriptional activity; test: Meis1 luciferase transcriptional activity assay in NRVMs; assay type: cell-based, rat; details: 10-500 nM, compared to control (PBS for neomycin, paromomycin; DMSO for rutin, hesperidin)
Excerpt: as §1

[3] = target: T1, HOXB13 (Mus musculus, UniProt P70321); test: Thermal shift assay on purified HOXB13 DBD; assay type: binding
T1 construct: made in house; host or cells: E. coli Rosetta (DE3) pLysS
Procedure: In another exemplary method, thermal shift analysis of aminoglycosides towards Meis1 and HOXB13 was performed. Initially, […] binding domains (DBDs) of Meis1 and HOXB13 were cloned, expressed, and purified to conduct the thermal shift assay (FIGS. 2A-2B). […] Protein Expression and Purification. mMeis1 and mHoxb13 were subcloned into pETDuet vector with noncleavable N-terminal 6×His tag and transformed into Rosetta (DE3) pLysS cells (Novagen). Target protein were expressed in cultures grown in autoinduction media at 18° C. overnight. The culture was harvested and sonicated in lysis buffer (20 mM Tris [pH=8.0], 1 M NaCl, 0.5 mM DTT, and supplemented with protease inhibitors). […] The eluate was concentrated and purified by gel filtration chromatography. The peak fractions were collected and concentrated to about . . . 0 mg/mL for crystallization screening.

[4] = test system: mouse adult heart after myocardial infarction (MI); test: Cardiac repair after myocardial infarction (LAD ligation) in adult mice; assay type: in vivo
Procedure: In another exemplary method, the ability of the aminoglycosides on cardiac repair and heart regeneration was assessed in the mouse adult heart after following myocardial infarction (MI). MI was induced in adult mice by permanent ligation of the proximal left anterior descending coronary artery. This was followed by examining the expression of cell cycle inhibitors two weeks after MI (one week after drug(s) injection) by western blot analysis. […] Meanwhile, MI was induced to monitor the pharmacodynamics of the administered drug(s) to improve cardiac function and promote heart regeneration for 8-weeks (FIG. 5A). One week after injury, paromomycin and paromomycin-neomycin combo (200 mg/kg/day, i.p.) was administered while assessment of left ventricular ejection fraction (LVEF) by echocardiography was performed 1-week post-surgery, 1 week after drug(s) administration and every 2 weeks thereafter until 8 weeks post-surgery. Murine model of MI. Induction of adult anterior wall MI was performed as similar to the methods described in Nguyen et al., Nature (2020) 582, 271-276, the disclosure of which is incorporated herein in its entirety. In brief, three-month-old mice were subjected to MI by ligation of the proximal aspect of the LAD coronary artery. Mice were anaesthetized in an airtight chamber using 4% isoflurane, endotracheally intubated, and ventilated using a volume-control ventilator with 100% O2, supplemented with 2% vaporized isoflurane (Harvard Apparatus). Following lateral thoracotomy and pericardiectomy, the LAD coronary artery was identified along the anterior wall of the LV. Prolene sutures (6-0 non-absorbable) was used to ligate the LAD. Proper occlusion of the LAD artery was noted by three criteria: immediate blanching of the LV anterior wall myocardium below the ligature, echocardiographic assessment 7 days post-surgery showing an ejection fraction in the range of 45-65%, and histological analysis. Vicryl sutures (6-0 absorbable) were used to close the thoracic cavity. Drugs administrated one week after MI. Mice were subjected to echocardiography at serial time points and then euthanized at 3 months after ligation. Hearts were collected and processed for histology and immunohistochemistry. Fibrotic scar size was measured using MIQuant similar to the method described in Nascimento et al., PLOS One (2011) 6, e25045, the disclosure of which is incorporated herein in its entirety. Transthoracic echocardiography. Assessment of in vivo heart function on conscious, non-sedated mice was performed using a Vevo2100 micro-ultrasound system, M[…] probe (VisualSonics) at baseline, 1 week after injury, 1 week after drug administration, and 4, 8, 12 and 16 weeks after occlusion. Echocardiographic M-mode images were obtained from a parasternal short-axis view at the level of the papillary muscles. Left ventricular internal diameters at end diastole (LVIDd) and end systole (LVIDs) were measured from M-mode recordings. Six representative contraction cycles were selected for analysis, and average indexes (LVIDd, LVIDs and fractional shortening) were calculated for each mouse. All echocardiography measurements were performed in a blinded manner. Histology. Hearts were collected and fixed in 4% paraformaldehyde in PBS overnight at 4° C. and then processed for either paraffin or cryo embedding. […] Protein concentration was quantified using Pierce BCA protein assay kit (Pierce Biotechnology), with three biological replicates. […]

[5] = test system: cardiomyocytes of neonatal heart; test: Cardiomyocyte proliferation in neonatal CD-1 mice; assay type: in vivo, mouse; details: 300 mg/kg, i.p from p1 till p14, compared with controls
Procedure: Paromomycin-neomycin was administered to neonatal CD-1 mice at 300 mg/kg, i.p from p1 till p14. Hearts were collected for histological analysis (FIG. 4A).
Immunofluorescence staining. Heart cryosections were equilibrated with antigen retrieval buffer with 1 mM EDTA or epitope retrieval buffer (IHC World). Samples were permeabilized and blocked with 0.3% Triton X-100 and 10% serum from the host animal of secondary antibodies in PBS for 20 minutes at room temperature. Then, samples were incubated overnight at 4° C. with the primary antibodies. After three washes with PBS, samples were incubated for 1 hour at room temperature with corresponding fluorescence secondary antibodies conjugated to Alexa Fluor 488 or 555 (Invitrogen) at 1:400. The slides were mounted in Vectashield Antifade Mounting Medium (Vector Laboratories). Slides were viewed under Nikon fluorescence or Zeiss LSM 510 confocal microscopes. Primary antibodies used: phospho histone H3 Ser10 (EMD Millipore, 06-570; 1:100), aurora B kinase (Sigma, A5102; 1:25) to analyse cell cycle re-entry; troponin T, cardiac isoform Ab-1, clone 13-11 (Thermo Scientific, MS-295-P1; 1:200), sarcomeric α-actinin (Abcam, ab68167; 1:200) to identify cardiomyocytes. DAPI or Hoechst was used for nuclear staining. Images were obtained using a Nikon Eclipse Ni or Nikon A1 laser scanning confocal microscopes.

[6] = test system: cardiomyocytes in the adult heart; test: Cardiomyocyte proliferation in adult mice with no injury stimuli; assay type: in vivo, mouse
Procedure: In another exemplary method, cardiomyocyte proliferation in mice was assessed in the presence of paromomycin and paromomycin-neomycin. Based on the data resulting from the in vitro screening coupled and luciferase transcription activity assays detailed in the exemplary methods herein, paromomycin was initially selected to study its capacity to prolong cardiomyocytes proliferation in adult mice with no injury stimuli. The effect of paromomycin (Paro) (200 mg/kg/day, i.p.) and paromomycin-neomycin (Paro/Neo) combo (300 mg/kg/day, i.p.) was assessed after 2 weeks of injection on cell proliferation indices, cytokinesis, cardiomyocyte cell size, isolated cardiac cell count, and nucleation on the isolated cardiomyocytes in the adult heart (FIG. 3A, FIG. 4F). […] Animals. Mice were housed in a 12:12 h light: dark cycle in a temperature-controlled room with free access to water and food. Littermate controls were used whenever possible. Both male and female mice were used on age-matched and gender-matched mice. No statistical methods were used to predetermine sample size. All surgeries and echocardiographic studies were carried out blinded to the genotype of the mice during the experiments and outcome assessments. CD1 mice (Charles River Laboratories) were used for drug-tested studies. Drug administration. Tamoxifen (Sigma) was prepared by dissolving in sesame oil (Sigma) to a concentration of 10 mg ml^-1. For the MADM clonal analysis, 14 consecutive injections of tamoxifen were administered, and mice were euthanized 2 weeks after the last injection. For injection of Paromomycin and Neomycin, mice were administered twice daily. Mice were euthanized at the same time of day to limit circadian variability. Immunofluorescence staining. Heart cryosections were equilibrated with antigen retrieval buffer with 1 mM EDTA or epitope retrieval buffer (IHC World). Samples were permeabilized and blocked with 0.3% Triton X-100 and 10% serum from the host animal of secondary antibodies in PBS for 20 minutes at room temperature. Then, samples were incubated overnight at 4° C. with the primary antibodies. After three washes with PBS, samples were incubated for 1 hour at room temperature with corresponding fluorescence secondary antibodies conjugated to Alexa Fluor 488 or 555 (Invitrogen) at 1:400. The slides were mounted in Vectashield Antifade Mounting Medium (Vector Laboratories). Slides were viewed under Nikon fluorescence or Zeiss LSM 510 confocal microscopes. Primary antibodies used: phospho histone […] (EMD Millipore, 06-570; 1:100), aurora B kinase (Sigma, A5102; 1:25) to analyse cell cycle re-entry; troponin T, cardiac isoform Ab-1, clone 13-11 (Thermo Scientific, MS-295-P1; 1:200), sarcomeric α-actinin (Abcam, ab68167; 1:200) to identify cardiomyocytes. DAPI or Hoechst was used for nuclear staining. Images were obtained using a Nikon Eclipse Ni or Nikon A1 laser scanning confocal microscopes. WGA staining and cardiomyocyte size quantification. WGA staining and quantification was performed as previously described. In brief, the slides were incubated with WGA conjugated to Alexa Fluor 488 ([…], Life Technologies) for 1 hour at room temperature following washing with PBS. To quantify the cross-sectional cell size, three to five independent hearts per group with three different views and positions, each from left and right ventricles, and septum were captured at 40× magnification. ImageJ was used to quantify the size of cardiomyocytes that were round and contained a nucleus. At least 500 cells per sample were quantified. Cardiomyocyte isolation. Adult hearts were freshly collected and fixed in 4% paraformaldehyde at 4° C. overnight. The hearts were minced to smaller pieces and subsequently incubated with collagenase D (2.4 mg ml^-1, Roche) and B (1.8 mg ml^-1, Roche) for 12 h at 37° C. using an end-over-end shaker. The supernatants were collected via 160-μm nylon mesh filter, and the procedure was repeated until no more cardiomyocytes were dissociated from the tissue. […]

[7] = two weeks after MI (one week after drug(s) injection)
[8] = adult CD-1 mice, i.p., 2 weeks, paromomycin 200 mg/kg, paromomycin-neomycin 300 mg/kg, Anti-Cnx43/DAPI, compared with controls
[9] = adult mice, i.p., 2 weeks, Paro 200 mg/kg/day, Paro/Neo combo 300 mg/kg/day, compared to control
[10] = adult mice, i.p., 2 weeks, Paro 200 mg/kg/day, Paro/Neo combo 300 mg/kg/day, compared to control-treated mice

T1 sequence (P70321 218-277 limits assumed): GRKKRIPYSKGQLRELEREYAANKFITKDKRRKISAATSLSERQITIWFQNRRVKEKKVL

| luciferase transcriptional activity for HOXB13 [1] | luciferase transcriptional activity for Meis1 [2] | change in the melting temperature of HOXB13 [3] | Compound | left ventricular ejection fraction (LVEF) by echocardiography ([4]; 8 weeks post-surgery, drug i.p. from one week after injury, compared to control-treated mice) | wet to dry lung ratio ([4]; MI mouse model, Paromomycin 200 mg/kg, i.p., Paromomycin-Neomycin 300 mg/kg, 8 weeks, compared to controls) | fibrotic scar (size) ([4]; histological analysis, 8 weeks post-MI, compared to control-treated hearts) | p15/16 proteins (cell cycle inhibitor), western blot [4, 7] | p21 protein (cell cycle inhibitor), western blot [4, 7] | cardiomyocyte cytokinesis marker (AurkB and anti-cTnT co-immunostaining) [5] | cardiomyocyte mitosis marker (anti-pH3 and anti-cTnT co-immunostaining) [5] | RFP+ and GFP+ single-labelled daughter cardiomyocytes ([6]; Mosaic Analysis with Double Markers (MADM) mice, lineage tracing, compared to control-treated mice) | bi- and multi-nucleation of isolated cardiomyocytes [6, 8] | mono-nucleation of isolated cardiomyocytes [6, 8] | cardiomyocytes cell size via wheat germ agglutinin (WGA) staining [6, 9] | cardiomyocytes undergoing cytokinesis via Aurkb+ staining [6, 9] | number of cardiomyocytes following dissociation of the heart by collagenase digestion ([6]; adult mice, i.p., 2 weeks, Paro 200 mg/kg/day, Paro/Neo combo 300 mg/kg/day, compared to control-treated hearts) | heart weight (HW)/body weight (BW) ratio [6, 10] | pH3+ cardiomyocytes (mitosis marker) [6, 10] |
| --- | --- | --- | --- | --- | --- | --- | --- | --- | --- | --- | --- | --- | --- | --- | --- | --- | --- | --- |
| significant downregulation | significant downregulation | noticeable change | neomycin | – | – | – | – | – | – | – | – | – | – | – | – | – | – | – |
| significant downregulation | significant downregulation | – | NC[C@@H]1O[C@H](O[C@H]2[C@@H](O)[C@H](O[C@@H]3[C@@H](O)[C@H](N)C[C@H](N)[C@H]3O[C@H]3O[C@H](CO)[C@@H](O)[C@H](O)[C@H]3N)O[C@@H]2CO)[C@H](N)[C@@H](O)[C@@H]1O [Paromomycin, paromomycin] | maintain the LVEF | significant decrease | trending decline | decrease | decrease | significant increase | significant increase | significant increased | significant decrease | significant increase | significant reduction | significant increase | significantly higher number | no significant difference | significant increase |

| Compound | luciferase transcriptional activity for HOXB13 [1] | luciferase transcriptional activity for Meis1 [2] | change in the melting temperature of HOXB13 [3] | left ventricular ejection fraction (LVEF) by echocardiography ([4]; 8 weeks post-surgery, drug i.p. from one week after injury, compared to control-treated mice) | wet to dry lung ratio ([4]; MI mouse model, Paromomycin 200 mg/kg, i.p., Paromomycin-Neomycin 300 mg/kg, 8 weeks, compared to controls) | fibrotic scar (size) ([4]; histological analysis, 8 weeks post-MI, compared to control-treated hearts) | p15/16 proteins (cell cycle inhibitor), western blot [4, 7] | p21 protein (cell cycle inhibitor), western blot [4, 7] | cardiomyocyte cytokinesis marker (AurkB and anti-cTnT co-immunostaining) [5] | cardiomyocyte mitosis marker (anti-pH3 and anti-cTnT co-immunostaining) [5] | RFP+ and GFP+ single-labelled daughter cardiomyocytes ([6]; Mosaic Analysis with Double Markers (MADM) mice, lineage tracing, compared to control-treated mice) | bi- and multi-nucleation of isolated cardiomyocytes [6, 8] | mono-nucleation of isolated cardiomyocytes [6, 8] | cardiomyocytes cell size via wheat germ agglutinin (WGA) staining [6, 9] | cardiomyocytes undergoing cytokinesis via Aurkb+ staining [6, 9] | number of cardiomyocytes following dissociation of the heart by collagenase digestion ([6]; adult mice, i.p., 2 weeks, Paro 200 mg/kg/day, Paro/Neo combo 300 mg/kg/day, compared to control-treated hearts) | heart weight (HW)/body weight (BW) ratio [6, 10] | pH3+ cardiomyocytes (mitosis marker) [6, 10] |
| --- | --- | --- | --- | --- | --- | --- | --- | --- | --- | --- | --- | --- | --- | --- | --- | --- | --- | --- |
| COc1ccc([C@@H]2CC(=O)c3c(O)cc(O[C@@H]4O[C@H](CO[C@@H]5O[C@@H](C)[C@H](O)[C@@H](O)[C@H]5O)[C@@H](O)[C@H](O)[C@H]4O)cc3O2)cc1O [Hesperidin, hesperidin] | poor inhibitory profile | poor inhibitory profile | – | – | – | – | – | – | – | – | – | – | – | – | – | – | – | – |
